Measurements: ChEMBL document CHEMBL1137297, “Synthesis and pharmacological evaluation of novel octahydro-1H-pyrido[1,2-a]pyrazine as mu-opioid receptor antagonists” (J Med Chem, 2006)
pIC50, pKi: −log10 of the molar value.

What was measured:
[1] = target: T1, Mu-type opioid receptor (Homo sapiens, UniProt P35372); assay: Displacement of [3H]diprenorphine from human cloned mu opioid receptor expressed in CHO cells; format: cell-based
[2] = target: T2, Delta-type opioid receptor (Homo sapiens, UniProt P41143); assay: Displacement of [3H]diprenorphine from human cloned delta opioid receptor expressed in CHO cells; format: cell-based
T2 sequence (P41143 whole entry): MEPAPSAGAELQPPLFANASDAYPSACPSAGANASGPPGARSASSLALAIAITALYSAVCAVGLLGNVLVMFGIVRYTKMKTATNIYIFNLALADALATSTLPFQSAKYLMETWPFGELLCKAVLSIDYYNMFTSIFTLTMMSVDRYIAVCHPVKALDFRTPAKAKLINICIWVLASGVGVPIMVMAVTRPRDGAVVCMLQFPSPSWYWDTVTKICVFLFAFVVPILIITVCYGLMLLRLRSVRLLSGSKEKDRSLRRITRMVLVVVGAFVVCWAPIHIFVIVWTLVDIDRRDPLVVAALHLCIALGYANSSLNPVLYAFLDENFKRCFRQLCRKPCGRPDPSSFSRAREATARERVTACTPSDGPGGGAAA

[3] = target: T2, Delta-type opioid receptor; assay: Antagonist activity assessed as inhibition of BW373U86-stimulated [35S]GTP-gamma-S binding to human delta opioid receptor expressed in CHO cells; format: functional, cell-based
[4] = target: T1, Mu-type opioid receptor; assay: Antagonist activity assessed as inhibition of loperamide-stimulated [35S]GTPgammaS binding to human mu opioid receptor expressed in CHO cells; format: functional, cell-based
[5] = target: T3, Kappa-type opioid receptor (Homo sapiens, UniProt P41145); assay: Displacement of [3H]diprenorphine from human cloned kappa opioid receptor expressed in CHO cells; format: cell-based
T3 sequence (P41145 whole entry): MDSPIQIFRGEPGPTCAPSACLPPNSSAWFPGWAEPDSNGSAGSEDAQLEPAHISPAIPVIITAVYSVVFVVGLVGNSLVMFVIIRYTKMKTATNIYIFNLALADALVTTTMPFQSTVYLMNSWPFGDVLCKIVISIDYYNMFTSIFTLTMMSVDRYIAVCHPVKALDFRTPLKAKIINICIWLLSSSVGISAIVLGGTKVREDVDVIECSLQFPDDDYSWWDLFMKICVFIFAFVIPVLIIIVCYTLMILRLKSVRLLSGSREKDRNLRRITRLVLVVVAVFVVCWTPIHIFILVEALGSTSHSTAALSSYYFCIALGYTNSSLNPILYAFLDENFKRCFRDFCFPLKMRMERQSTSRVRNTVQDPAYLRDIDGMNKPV

[6] = target: T3, Kappa-type opioid receptor; assay: Antagonist activity assessed as inhibition of U50488-stimulated [35S]GTP-gamma-S binding to human kappa opioid receptor expressed in CHO cells; format: functional, cell-based
[7] = target: T2, Delta-type opioid receptor; assay: Inhibition of [3H]diprenorphine binding to human cloned delta opioid receptor expressed in CHO cells at 10 uM; format: cell-based

T1 sequence (P35372 whole entry): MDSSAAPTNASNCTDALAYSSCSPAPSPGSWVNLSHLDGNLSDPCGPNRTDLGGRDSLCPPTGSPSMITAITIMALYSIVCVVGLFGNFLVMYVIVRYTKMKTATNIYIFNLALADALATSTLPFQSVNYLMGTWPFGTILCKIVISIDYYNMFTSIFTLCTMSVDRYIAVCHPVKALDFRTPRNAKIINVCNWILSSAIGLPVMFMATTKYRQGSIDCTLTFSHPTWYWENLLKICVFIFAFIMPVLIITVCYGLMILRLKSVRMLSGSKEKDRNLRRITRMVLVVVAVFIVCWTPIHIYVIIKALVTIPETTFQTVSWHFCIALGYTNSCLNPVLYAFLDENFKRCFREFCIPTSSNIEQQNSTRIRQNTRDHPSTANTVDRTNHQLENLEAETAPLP

Compound	pKi [1]	pKi [2]	pIC50 [3]	pIC50 [4]	pKi [5]	pIC50 [6]	inhibition [7]
C[C@H]1CN2C[C@H](c3ccccc3)N(Cc3ccccc3)C[C@H]2C[C@@]1(C)c1cccc(O)c1	8.33	6.47	5.89	7.40	6.92	7.00	–
C[C@H]1CN2CCN(C(=O)Nc3ccccc3)C[C@H]2C[C@@]1(C)c1cccc(O)c1	7.51	6.27	–	7.80	6.38	–	–
C[C@H]1CN2CCN(Cc3ccc(O)cc3)C[C@H]2C[C@@]1(C)c1cccc(O)c1	8.00	6.66	–	8.24	6.57	–	–
C[C@H]1CN2CCN(Cc3ccccc3O)C[C@H]2C[C@@]1(C)c1cccc(O)c1	8.74	6.52	6.24	8.80	7.12	8.03	–
C[C@H]1CN2CCN(Cc3ccco3)C[C@H]2C[C@@]1(C)c1cccc(O)c1	8.13	5.82	–	8.14	6.37	–	–
C[C@H]1CN2C[C@H](Cc3ccccc3)NC[C@H]2C[C@@]1(C)c1cccc(O)c1	–	–	7.48	8.55	7.07	7.80	–
C[C@H]1CN2CCN(C(=O)c3ccccc3)C[C@H]2C[C@@]1(C)c1cccc(O)c1	–	–	7.85	8.68	6.74	7.30	–
C[C@H]1CN2C[C@H](c3ccccc3)N(C)C[C@H]2C[C@@]1(C)c1cccc(O)c1	–	5.64	6.24	–	7.89	8.62	–
C[C@H]1CN2C[C@H](c3ccccc3)NC[C@H]2C[C@@]1(C)c1cccc(C(N)=O)c1	8.74	7.22	6.96	8.82	7.96	8.64	–
C[C@H]1CN2C[C@H](c3ccccc3)CC[C@H]2C[C@@]1(C)c1cccc(O)c1	–	–	7.29	–	–	8.49	–
C[C@H]1CN2CCN(Cc3ccccn3)C[C@H]2C[C@@]1(C)c1cccc(O)c1	7.70	5.96	–	7.89	6.41	–	–
C[C@H]1CN2CCN(Cc3cccs3)C[C@H]2C[C@@]1(C)c1cccc(O)c1	8.85	6.59	6.47	9.20	7.43	8.18	–
C[C@H]1CN2CCN(Cc3cccc(O)c3)C[C@H]2C[C@@]1(C)c1cccc(O)c1	8.37	6.51	–	8.35	7.25	–	–
C[C@H]1CN2CCN(CCc3ccccc3)C[C@H]2C[C@@]1(C)c1cccc(O)c1	–	–	6.51	8.70	–	7.70	–
C[C@H]1CN2CCN(Cc3cccc(Oc4ccccc4)c3)C[C@H]2C[C@@]1(C)c1cccc(O)c1	7.68	–	–	8.01	7.62	–	55%
C[C@H]1CN2CCN(CCCc3ccccc3)C[C@H]2C[C@@]1(C)c1cccc(O)c1	7.44	6.02	–	7.89	6.02	–	–
C[C@H]1CN2CCN(Cc3ccccc3Cl)C[C@H]2C[C@@]1(C)c1cccc(O)c1	9.33	7.24	6.72	8.74	7.80	8.00	–
C[C@H]1CN2CCN(Cc3cccnc3)C[C@H]2C[C@@]1(C)c1cccc(O)c1	7.89	6.08	–	8.12	6.40	–	–
C[C@H]1CN2CCN(Cc3cccc4ccccc34)C[C@H]2C[C@@]1(C)c1cccc(O)c1	8.46	–	–	7.80	6.64	–	60%
C[C@H]1CN2CCN(Cc3ccoc3)C[C@H]2C[C@@]1(C)c1cccc(O)c1	7.92	6.13	–	8.21	6.92	–	–

Compound	pKi [1]	pKi [2]	pIC50 [3]	pIC50 [4]	pKi [5]	pIC50 [6]	inhibition [7]
C[C@H]1CN2CCN(Cc3ccccc3)C[C@H]2C[C@@]1(C)c1cccc(O)c1	8.92	–	6.82	9.14	7.37	8.08	–
C[C@H]1CN2C[C@H](C3CCCCC3)NC[C@H]2C[C@@]1(C)c1cccc(O)c1	8.57	7.17	7.55	8.89	7.80	8.92	–
C[C@H]1CN2C[C@@H](c3ccccc3)NC[C@H]2C[C@@]1(C)c1cccc(O)c1	6.74	6.18	–	7.28	6.37	–	–
CC(=O)N1C[C@H]2C[C@@](C)(c3cccc(O)c3)[C@@H](C)CN2C[C@@H]1c1ccccc1	7.03	–	–	6.66	6.21	–	57%
C[C@H]1CN2CCN(Cc3ccc(Cl)cc3)C[C@H]2C[C@@]1(C)c1cccc(O)c1	7.77	6.38	–	7.38	6.55	–	–
C[C@H]1CN2C[C@H](c3ccccc3)N(Cc3ccccc3)C[C@H]2C[C@@]1(C)c1cccc(C(N)=O)c1	7.77	5.96	–	7.55	6.34	–	–
Cc1ccc(CN2CCN3C[C@H](C)[C@](C)(c4cccc(O)c4)C[C@@H]3C2)cc1	7.85	6.46	–	8.02	6.52	–	–
C[C@H]1CN2CCCN(Cc3ccccc3)C[C@H]2C[C@@]1(C)c1cccc(O)c1	6.80	5.54	–	7.82	6.27	–	–
COC(=O)c1cccc(CN2CCN3C[C@H](C)[C@](C)(c4cccc(O)c4)C[C@@H]3C2)c1	7.96	–	–	8.16	6.85	–	43%
C[C@H]1CN2C[C@@H](Cc3ccccc3)NC[C@H]2C[C@@]1(C)c1cccc(O)c1	7.60	6.39	–	7.66	6.89	–	–
CC(C)[C@H]1CN2C[C@H](C)[C@](C)(c3cccc(O)c3)C[C@@H]2CN1	6.42	–	–	7.18	7.24	–	15%
C[C@H]1CN2CCN(C(=O)Cc3ccccc3)C[C@H]2C[C@@]1(C)c1cccc(O)c1	7.77	7.15	–	8.17	6.27	–	–
C[C@H]1CN2CCN(c3ccccc3)C[C@H]2C[C@@]1(C)c1cccc(O)c1	6.66	6.02	–	7.27	5.43	–	–
C[C@H]1CN2CCN(Cc3cccc(OCc4ccccc4)c3)C[C@H]2C[C@@]1(C)c1cccc(O)c1	7.89	–	–	7.66	7.48	–	43%
C[C@H]1CN2C[C@H](c3ccccc3)NC[C@H]2C[C@@]1(C)c1cccc(O)c1	–	–	7.01	8.96	–	8.49	–
Cc1cccc(CN2CCN3C[C@H](C)[C@](C)(c4cccc(O)c4)C[C@@H]3C2)c1	8.89	6.29	–	8.82	6.89	–	–
C[C@H]1CN2CCN(Cc3ccsc3)C[C@H]2C[C@@]1(C)c1cccc(O)c1	8.52	6.47	–	8.85	7.42	–	–
C[C@H]1CN2CCN(Cc3ccc4ccccc4c3)C[C@H]2C[C@@]1(C)c1cccc(O)c1	7.05	–	–	7.13	6.01	–	49%
C[C@H]1CN2CCN(Cc3cccc(Cl)c3)C[C@H]2C[C@@]1(C)c1cccc(O)c1	8.82	6.44	–	8.74	7.08	–	–
